Results: the CheMixHub ionic liquid set

Experiment: xn = mol fraction of the nth substance listed

CCCC[N+](C)(C)C.O=S(=O)([N-]S(=O)(=O)C(F)(F)F)C(F)(F)F + CCC(O)CO
101 kPa
Settings | viscosity [mPa·s]
323.15 K, x2 = 0.6289 | 15.53
328.15 K, x2 = 0 | 30
338.15 K, x2 = 0.2291 | 14.17
338.15 K, x2 = 0.3543 | 11.92
343.15 K, x2 = 0.2291 | 12.41
348.15 K, x2 = 0.6289 | 7.02
353.15 K, x2 = 0.5116 | 7.12
353.15 K, x2 = 0.8622 | 4.78

CN1CCCN(C)C1=O + CCCCCCCCn1cc[n+](C)c1.[Cl-]
viscosity [mPa·s], 100 kPa
Settings | 288.15 K | 293.15 K | 298.15 K | 303.15 K | 308.15 K | 313.15 K | 318.15 K | 323.15 K | 328.15 K | 333.15 K
x2 = 0 | 4 | 3.51 | 3.11 | 2.78 | 2.5 | 2.266 | 2.064 | 1.891 | 1.737 | 1.595
x2 = 0.0999 | 15.3 | 12.48 | 9.9 | 8.46 | 7.27 | 6.32 | 5.53 | 4.88 | 4.35 | 3.9
x2 = 0.1998 | 52.2 | 40.6 | 31.8 | 25.6 | 21.04 | 17.5 | 14.79 | 12.66 | 10.9 | 9.46
x2 = 0.2997 | 176 | 128.8 | 95.4 | 78.6 | 61.1 | 48.4 | 39 | 31.9 | 26.4 | 21.86
x2 = 0.4004 | 412 | 287 | 224 | 163.5 | 122 | 93.5 | 72.9 | 57.5 | 46.8 | 38.3
x2 = 0.4993 | 1016 | 673 | 463 | 326 | 248 | 192 | 144.4 | 107.7 | 84.2 | 67.5
x2 = 0.5981 | 2302 | 1467 | 972 | 661 | 462 | 340 | 250 | 186 | 143.4 | 110.7
x2 = 0.6984 | – | – | 1797 | 1194 | 815 | 575 | 412 | 311 | 233 | 178
x2 = 0.7997 | – | – | – | 1924 | 1289 | 890 | 632 | 458 | 340 | 257

CCCCCC[n+]1ccn(C)c1.F[B-](F)(F)F + CCCCCO
101.33 kPa, x2 = 0.865
Settings | viscosity [mPa·s]
315 K | 5.31
315.35 K | 4.93
315.39 K | 4.9
315.5 K | 4.85
315.63 K | 4.78
315.79 K | 4.73
315.84 K | 4.71
315.86 K | 4.71
318.02 K | 4.19

COP(=O)([O-])OC.Cn1cc[n+](C)c1 + CC(C)O + O
100 kPa
Settings | viscosity [mPa·s]
298.15 K, x2 = 0.248, x3 = 0.2507 | 83
303.15 K, x2 = 0.2, x3 = 0.1998 | 87
313.15 K, x2 = 0.148, x3 = 0.1518 | 81
323.15 K, x2 = 0.1, x3 = 0.0988 | 80
333.15 K, x2 = 0.044, x3 = 0.043 | 92

CCCCCCCCCCCCCCCC[n+]1ccccc1.O=C([O-])C(O)c1ccccc1 + O
electrical conductivity [S/m], 101 kPa
Settings | 293.15 K | 298.15 K | 303.15 K | 308.15 K | 313.15 K
x1 = 1.08e-06 | 0.00061 | 0.00068 | 0.00076 | 0.00083 | 0.0009
x1 = 1.98e-06 | 0.001 | 0.0012 | 0.0013 | 0.0014 | 0.0016
x1 = 2.88e-06 | 0.00147 | 0.0016 | 0.0018 | 0.002 | 0.0022
x1 = 3.96e-06 | 0.0019 | 0.0022 | 0.0024 | 0.0026 | 0.0029
x1 = 4.69e-06 | 0.0023 | 0.0026 | 0.0029 | 0.0031 | 0.0035
x1 = 5.95e-06 | 0.00281 | 0.0032 | 0.0035 | 0.0038 | 0.0042
x1 = 7.21e-06 | 0.00341 | 0.0038 | 0.0042 | 0.0046 | 0.0051
x1 = 8.83e-06 | 0.00406 | 0.0046 | 0.005 | 0.0055 | 0.006
x1 = 1.045e-05 | 0.00469 | 0.0053 | 0.0058 | 0.0065 | 0.0071
x1 = 1.207e-05 | 0.00516 | 0.0058 | 0.0064 | 0.0071 | 0.0079
x1 = 1.351e-05 | 0.00562 | 0.00631 | 0.007 | 0.0077 | 0.0085
x1 = 1.478e-05 | 0.00603 | 0.0068 | 0.0075 | 0.0083 | 0.0092
x1 = 1.622e-05 | 0.00644 | 0.0072 | 0.008 | 0.0089 | 0.0098
x1 = 1.766e-05 | 0.00687 | 0.0077 | 0.0085 | 0.0094 | 0.0104
